Source: paper PMC5103170, “Total Synthesis, Structure, and Biological Activity of Adenosylrhodibalamin, the Non‐Natural Rhodium Homologue of Coenzyme B12” (Angewandte Chemie (International Ed. in English), 2016)

Target: T1, 1,2-propanediol dehydratase (PduCDE) (Citrobacter freundii, UniProt P0DUM7+P0DUM8)
T1 construct: gene pduC; purified enzyme, alpha2beta2gamma2; construct details only in Supporting Information; with Propanediol dehydratase small subunit
T1 sequence (P0DUM7 1-554): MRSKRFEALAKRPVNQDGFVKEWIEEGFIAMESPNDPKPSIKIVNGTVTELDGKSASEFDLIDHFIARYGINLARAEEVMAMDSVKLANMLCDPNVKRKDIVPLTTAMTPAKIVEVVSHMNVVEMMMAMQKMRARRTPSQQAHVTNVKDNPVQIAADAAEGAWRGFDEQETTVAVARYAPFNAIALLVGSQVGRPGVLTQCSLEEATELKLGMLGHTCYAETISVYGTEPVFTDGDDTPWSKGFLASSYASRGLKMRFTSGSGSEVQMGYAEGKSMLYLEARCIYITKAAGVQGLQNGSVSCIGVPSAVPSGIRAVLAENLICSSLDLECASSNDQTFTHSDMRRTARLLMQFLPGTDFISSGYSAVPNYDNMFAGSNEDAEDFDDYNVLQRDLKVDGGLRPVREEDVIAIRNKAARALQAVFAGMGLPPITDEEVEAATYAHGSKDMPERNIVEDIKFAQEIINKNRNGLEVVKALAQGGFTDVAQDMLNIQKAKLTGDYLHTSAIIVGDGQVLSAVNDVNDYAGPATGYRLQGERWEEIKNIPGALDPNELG
T1 sequence (P0DUM8 1-224): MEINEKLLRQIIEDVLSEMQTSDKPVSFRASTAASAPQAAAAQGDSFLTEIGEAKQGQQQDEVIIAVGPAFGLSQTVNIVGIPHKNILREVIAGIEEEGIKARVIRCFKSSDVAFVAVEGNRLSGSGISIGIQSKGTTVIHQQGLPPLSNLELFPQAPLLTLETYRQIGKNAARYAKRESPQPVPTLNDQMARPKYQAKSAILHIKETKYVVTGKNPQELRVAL
T1 sequence (P0DUM9 1-172 partner): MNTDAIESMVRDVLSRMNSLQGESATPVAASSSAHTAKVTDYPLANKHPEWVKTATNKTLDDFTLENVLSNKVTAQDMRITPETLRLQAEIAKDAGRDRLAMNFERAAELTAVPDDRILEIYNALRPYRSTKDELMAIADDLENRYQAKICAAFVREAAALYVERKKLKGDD
Assay: enzyme inhibition kinetics, non-linear regression
Format: biochemical
Conditions: competitive with AdoCbl

Substance	Ki (inactive as pseudo-coenzyme) [µM]	Ki [µM]
AdoRbl	6.9	–
vitamin B12	–	2.5
